Patent US11149047B2, “Aryl imidazoles for treatment of cancer” (Aptose Biosciences Inc., priority 2017, dated 2021)
Marks after values point to notes of the source that are not given here.

Assays:
Raji/COMPOUND IR cells = experiment: Cytotoxicity study, MTS cell proliferation assay, 5 days; format: cell-based, human; details: for RR (relative resistance): Raji/COMPOUND IR vs Raji; for IC50: Homo sapiens, Raji
Method: The human Burkitt lymphoma cell line Raji was obtained from the American Type Tissue Culture Collection and cultured in RPMI 1640 medium (ATCC) supplemented with 10% fetal bovine serum (ATCC,) at 37° C., 5% CO2. The COMPOUND I-resistant Raji (Raji/COMPOUND IR) cell line was generated by exposure to progressively higher concentrations of COMPOUND I over a period of 6 months. CAOV3 cells were obtained from ATCC and cultured in complete DMEM supplemented with 10% fetal bovine serum. MCF7 vector controlled and BRCA1 shRNA subclones were obtained from Dr. Simon Powell (Memorial Sloan-Kettering Cancer Center) and cultured in EMBM with 10% fetal bovine serum. MCF10A and hTERT-IMEC clones were obtained from Dr. Ben Ho Park (Johns Hopkins University). HCT116 BRCA2^+/+ cells and BRCA2^−/− cells were obtained from Dr. Samuel Aparicio (British Columbia Cancer Research Centre). PEO1 and PEO4 cells were obtained from Dr. Sharon Cantor (University of Massachusetts) and these cell lines were cultured under the same conditions as previously published. Sakai et al., Functional restoration of BRCA2 protein by secondary BRCA2 mutations in BRCA2-mutated ovarian carcinoma, Cancer Res. 2009; 69 (16):6381-6; Konishi et al., Mutation of a single allele of the cancer susceptibility gene BRCA1 leads to genomic instability in human breast epithelial cells, Proc. Natl. Acad. Sci. 2011; 108 (43):17773-8; Xu et al., CX-5461 is a DNA G-quadruplex stabilizer with selective lethality in BRCA1/2 deficient tumours, Nature Communications 2017; 8:14432, all of which are hereby incorporated by reference.
Cells were plated and treated with the indicated drugs in 96-well plates for 5 days. Cell viability was measured using CellTiter 96 AQueous one solution (MTS) cell proliferation assay purchased from Promega, and IC50 values were calculated using GraphPad Prism 6 Software.

[1] = tested on: phosphorylated ATM, γH2AX, cleaved PARP in Raji cells; experiment: Western blot of phospho-ATM, γH2AX and cleaved PARP; format: cell-based, human; details: 0.5 μM
Method: (§1) The structure of COMPOUND I is similar to drugs that bind to quadruplex structures in DNA which results in strand breaks; this led to the investigation of whether COMPOUND I caused damage to DNA. The parental Raji cells were treated with 0.5 μM COMPOUND I for increasing periods of time and induction of DNA damage was assessed by accumulation of the phosphorylated forms of ATM and γH2AX measured by Western blot analysis. […] Raji cells have very small nuclei making it difficult to quantify the formation of γH2AX foci, so the human ovarian carcinoma cell line CAOV3 was used for this purpose. […] Evidence of DNA damage was further strengthened by the results of the neutral comet assay which mainly detects DNA double strand breaks (FIG. 2D).

[2] = tested on: DNA double strand breaks in CAOV3 cells; experiment: Neutral comet assay; format: cell-based, human
Method: Comet assay kits were purchased from Trevigen (Gaithersburg, Md.) and neutral comet assay was performed according to the manufacturer's instructions. Images were collected with a Keyence Fluorescent Microscope (Keyence America, Itasca, Ill.) and quantitated with OpenComet software.
as §1

[3] = tested on: KLF4 and CDKN1A expression in AML cell lines; experiment: qRT-PCR of KLF4 and CDKN1A (p21) expression; format: cell-based
Method: Cells were treated with vehicle or COMPOUND I at various concentrations for 24 hours or at a single concentration for 1, 3, 6, 12, and 24 hours before harvesting. Cells were lysed by QiaShredder columns (QIAGEN, catalog #79656), total RNA was isolated using QIAGEN RNeasy Plus Mini Kit (catalog #74134), and cDNA was synthesized utilizing Transcriptor Universal cDNA master mix (Roche, catalog #05893151001) and then used for qRT-PCR analysis using FastStart essential DNA probes master mix (Roche, catalog #06402682001) and Roche LightCycler96. Primer probe pairs were purchased from IDT (Table 5). Expression was calculated as fold change over vehicle treated samples after normalizing to GAPDH […].
(§2) Previous studies reported upregulation of KLF4 and CDKN1A expression as a potential mechanism of APT0-COMPOUND I activity in tumors. […] The upregulation of CDKN1A mRNA increased with duration of exposure in all AML cell lines tested (FIGS. 15D and 15E). At later time points, CDKN1A expression began to decrease, likely due to increasing cell death. Induction of CDKN1A expression is typically associated with a subsequent G0-G1, cell-cycle arrest, which was observed following COMPOUND I treatment of solid tumor lines.

MV4-11 cells = experiment: Flow cytometry cell-cycle analysis; format: cell-based; details: 1 μmol/L, 24-hour exposure
Method: Cells were treated as described above. To determine apoptosis, cells were stained with FITC-Annexin V and propidium iodide (PI; BD Pharmingen, catalog #556570) and then analyzed on BD Accuri C6 flow cytometer. To measure DNA synthesis and phases of cell cycle, treated cells were stained with 5-ethynyl-2′-deoxyuridine (Edu) Alexa Fluor 488 (Thermo Fisher Scientific, catalog #C10425) and PI (PI/RNase A staining solution, BD Biosciences, catalog #550825). The dead cells were excluded from analysis by using Live/Dead Fixable Far Red Dead Cell Stain Kit (Thermo Fisher Scientific, catalog #L34973). Staining was performed as per the manufacturers' instructions.
as §2

[4] = tested on: TP53, phos-CHEK1, γH2AX, MAPK14, MAPK8 in MV4-11 cells; experiment: Western blot of DNA damage and cell stress pathways; format: cell-based; details: 500 nmol/L
Method: Cells were treated as described above. Whole-cell lysates were prepared, separated by SDS-PAGE, and transferred to nitrocellulose membranes. Densitometry was performed using ImageJ or Image Studio Lite Version5.2 software and normalized to the density of GAPDH.
The increase in total protein was concomitant with an increase in phospho-Ser15 and acetyl-K382 (FIG. 12B). TP53 is phosphorylated at Ser15 and Ser20 in response to DNA damage, which reduces MDM2 binding and proteasomal degradation of p53. Furthermore, p53 is acetylated in response to cellular stress, and this modification can further stabilize TP53 protein levels and modulate binding activity. Activation of TP53 can trigger apoptosis through upregulation of proapoptotic factors such as BBC3 (PUMA), PMAIP1 (NOXA), and BAX. […] A concentration-dependent increase in ? H2AX was detected in all AML lines tested, thereby adding further credence to the concept that COMPOUND I triggers the DDR pathway (FIG. 12D).

Q: How did the “fold resistant to COMPOUND I (Raji/COMPOUND IR over sensitive Raji)” value (Raji/COMPOUND IR cells) turn out when `Cc1[nH]c2ccc(F)cc2c1-c1nc2c3cccnc3c3ncccc3c2[nH]1` [COMPOUND I, 2-(5-fluoro-2-methyl-1H-indol-3-yl)-1H-imidazo[4,5-f][1,10]phenanthroline] was run?
A: 16.7±3.9 fold

Q: And the “RR (relative resistance)” value (Raji/COMPOUND IR cells; COMPOUND I + 5 nM Ko143)?
A: 10.9 ± 1.9^c

Q: And the “RR (relative resistance)” value (Raji/COMPOUND IR cells; COMPOUND I + 50 nM Ko143)?
A: 2.5 ± 0.7^a

Q: And the “RR (relative resistance)” value (Raji/COMPOUND IR cells; COMPOUND I alone)?
A: 16.7 ± 3.9^b

Q: What about the IC50 (Raji/COMPOUND IR cells; COMPOUND I + 5 nM Ko143, Raji/COMPOUND IR) of the same compound?
A: 0.853 ± 0.044 µM

Q: And the IC50 (Raji/COMPOUND IR cells; COMPOUND I + 50 nM Ko143, Raji/COMPOUND IR)?
A: 0.201 ± 0.0207 µM

Q: What about the IC50 (Raji/COMPOUND IR cells; COMPOUND I alone, Raji/COMPOUND IR, mean ± SEM) of the same compound?
A: 1.39 ± 0.094 µM

Q: And the IC50 (Raji/COMPOUND IR cells; Raji/COMPOUND IR cells)?
A: 1.39 ± 0.0985 µM

Q: And the “cleavage of PARP” value ([1]; time course)?
A: detected starting at 8 h

Q: And the “phosphorylated ATM and γH2AX accumulation” value ([1]; up to 24 h)?
A: clear increase in phosphorylated ATM and γH2AX starting at 6 h

Q: What about the “tail DNA vs DMSO” value ([2]; 0.5 μM, 6 h) of the same compound?
A: no increase in tail DNA

Q: And the “DNA in comet tails” value ([2]; 6 h treatment then 18 h drug free media (pulse-chase))?
A: significantly more DNA in the comet tails

Q: What about the “AML cell lines with upregulated KLF4 expression” value ([3]; 24 hr treatment, FIG. 15A) of the same compound?
A: 4 of 6

Q: What about the “CDKN1A (p21) expression” value ([3]; FIGS. 15B and 15C) of the same compound?
A: induced in all AML cell lines in a concentration-dependent manner

Q: And the G0-G1 cell-cycle arrest (MV4-11 cells)?
A: all live cells had arrested in G0-G1

Q: And the “time at which an increase in phos-CHEK1 was detected” value [4]?
A: 1 h

Q: What about the “time of phos-CHEK1 peak” value [4] of the same compound?
A: approximately 4 hours

Q: And the “MAPK14 and MAPK8 phosphorylation” value ([4]; 4- to 6-hour treatment)?
A: increase in both MAPK14 phos-T180 and MAPK8 phos-Thr183/pTyr185

Q: And the “DDR marker γH2AX” value ([4]; by 6 hours)?
A: robust increase

Q: And the TP53 levels ([4]; 1, 3, and 6 hours)?
A: significant increase in TP53 levels
